Values of other authors in patent US9186343B2, “Nanoveso™: treatment, biomarkers and diagnostic tests for liver diseases and comorbid diseases” (Nanoveson, LLC, priority 2007, dated 2015).
Values joined by “and” are separate entries in the source; they are usually repeats but may differ in a detail not shown here. Equal values may be shown once.

Legend:
[1] = test system: human prostate cancer cells; conditions: in vitro at micromolar concentrations
[2] = test system: chromaffin granules; conditions: most effective fusogen of 23 compounds
[3] = presence of annexin

In the case of CCCCC/C=C\C/C=C\C/C=C\C/C=C\CCCC(=O)O [AA, Arachidonic Acid (n-6 20:4)], the “human prostate cancer cell growth” value [1] is given as “effective stimulator” and the “minimum concentration as fusogen” value [2] is given as 2 ug/ml and 6.6 uM.

B1: annexin: synexin (a.k.a. annexin VII), a Ca2+ binding protein (protein, UniProt P20073 1-488, looked up)
Annexin A7: MSYPGYPPTGYPPFPGYPPAGQESSFPPSGQYPYPSGFPPMGGGAYPQVPSSGYPGAGGYPAPGGYPAPGGYPGAPQPGGAPSYPGVPPGQGFGVPPGGAGFSGYPQPPSQSYGGGPAQVPLPGGFPGGQMPSQYPGGQPTYPSQINTDSFSSYPVFSPVSLDYSSEPATVTQVTQGTIRPAANFDAIRDAEILRKAMKGFGTDEQAIVDVVANRSNDQRQKIKAAFKTSYGKDLIKDLKSELSGNMEELILALFMPPTYYDAWSLRKAMQGAGTQERVLIEILCTRTNQEIREIVRCYQSEFGRDLEKDIRSDTSGHFERLLVSMCQGNRDENQSINHQMAQEDAQRLYQAGEGRLGTDESCFNMILATRSFPQLRATMEAYSRMANRDLLSSVSREFSGYVESGLKTILQCALNRPAFFAERLYYAMKGAGTDDSTLVRIVVTRSEIDLVQIKQMFAQMYQKTLGTMIAGDTSGDYRRLLLAIVGQ
For B1, the “increase of the aggregation rate” value [3] is listed as “up to 100 fold”.
